From US7417156B2, “Orally active, antimalarial, anticancer, artemisinin-derived trioxane dimers” (Johns Hopkins University, priority 2002, dated 2008)
Like-named read-outs stand apart in the source and are kept apart here.

Experiments:
BT-549 = assay: NCI 60 cell line panel screen (SRB); format: cell-based, human
RXF 393 = assay: NCI 60 cell line panel screen (SRB); format: cell-based, human
SF-268 = assay: NCI 60 cell line panel screen (SRB); format: cell-based, human
[1] = system: chloroquine-sensitive P. falciparum (NF54); assay: Antimalarial activity in vitro, [3H]hypoxanthine incorporation; format: cell-based
MCF7 = assay: NCI 60 cell line panel screen (SRB); format: cell-based, human
NCI/ADR-RES = assay: NCI 60 cell line panel screen (SRB); format: cell-based, human
CCRF-CEM = assay: NCI 60 cell line panel screen (SRB); format: cell-based, human; settings: CCRF-CEM (Leukemia)
UACC-257 = assay: NCI 60 cell line panel screen (SRB); format: cell-based, human
SF-539 = assay: NCI 60 cell line panel screen (SRB); format: cell-based, human
MDA-MB231/ATCC = assay: NCI 60 cell line panel screen (SRB); format: cell-based, human
K-562 = assay: NCI 60 cell line panel screen (SRB); format: cell-based, human
HOP-62 = assay: NCI 60 cell line panel screen (SRB); format: cell-based, human
HL-60(TB) = assay: NCI 60 cell line panel screen (SRB); format: cell-based, human
OVCAR-8 = assay: NCI 60 cell line panel screen (SRB); format: cell-based, human
MOLT-4 = system: MOLT-4
Procedure: Growth Inhibition. […] The screening assay is performed on 96-well microtitre plates. Relatively high initial inoculation densities are used, in order to permit measurement of “time-zero” values and to enhance the screen's ability to detect and provide some differentiation between growth inhibition and cytotoxic response parameters. […] The inoculated microtitre plates are pre-incubated for 24 hours at 37° C. prior to drug additions. The five drug dilutions tested routinely range from 10^−4 to 10^−8 molar. Higher or lower concentration ranges may be selected on a non-routine basis if appropriate solubility and/or prior biological information or other screening data so dictate. Duplicate wells are prepared for all concentrations, (concentration is often denoted by placing brackets around a number); “time-zero” and “no drug” controls are also provided for each test. The minimum amount of compound required for a one-time evaluation in the routine screen can be calculated from the knowledge that each test requires a total of approximately 40 ml (0.04 liter) of cell culture medium containing the highest desired drug concentration. […] After a 48 hour incubation (37° C.) with the test compound, the cells are fixed in situ to the bottoms of the microtitre wells by addition of 50 μl of either 50% trichloroacetic acid (for adherent cell lines) or 80% trichloroacetic acid (for settled cell suspension lines), followed by incubation for 60 minutes at 4° C. The cellular protein in each well is assayed using a sulforhodamine B (SRB) stain procedure. Briefly, after discarding the supernatants, the microtitre plates are washed 5 times with deionized water and air-dried. […] Unbound SRB is removed by washing 5 times with 1% acetic acid. […] SRB is a bright pink anionic dye which, in dilute acetic acid, binds electrostatically to the basic amino acids of TCA-fixed cells. Cryopreserved master stocks of all the lines are maintained, and cultures used for screening are replaced from the master stock after no more than twenty passages in the screening laboratory. The cell line panel consists of 60 lines, organized into nine, disease-related subpanels including leukemia, non-small-cell lung cancer, colon, CNS, melanoma, ovarian, renal, prostate and breast cancers.
At this value the increase from time tzero, in the number or mass of cells in the test well is only 50% as much as the corresponding increase in the control well during this period of the experiment, see Table III. A drug effect of this intensity is interpreted as primary growth inhibition.
At this value the number or mass of cells in the well at the end of the experiment equals the number or mass of cells in the well at time tzero, see Table IV. A drug effect of this intensity is regarded as cytostasis.
At this value, the number or mass of cells in the test well at the end of the experiment is half that at time tzero, see Table V. This is interpreted as cytotoxicity.
Dose response curves, shown in the above mentioned Figures, are obtained by exposing various cancer cell lines to compounds having a known concentration ([log10M]), as discussed in detail above, and then plotting the percentage growth of each cell line for each concentration. […] Percentage growth is determined by dividing the number or mass of cells in the test well by the number or mass of cells in a control well. […] As discussed previously, the five drug dilutions routinely tested range from 10^−4 to […].

SK-OV-3 = assay: NCI 60 cell line panel screen (SRB); format: cell-based, human
EKVX = assay: NCI 60 cell line panel screen (SRB); format: cell-based, human
HT29 = assay: NCI 60 cell line panel screen (SRB); format: cell-based, human

CC1CCC2C(C)C(CC(CO)CC3OC4OC5(C)CCC6C(C)CCC(C3C)C46OO5)OC3OC4(C)CCC1C32OO4 (stereo not drawn) [Compound 4, bis-trioxane primary alcohol]
Log10LC50 (BT-549; BT-549 (Breast Cancer), LC50: PG=−50): −4.31 log10M | Log10TGI50 (BT-549; BT-549 (Breast Cancer), TGI: PG=0): −4.73 log10M | Log10GI50 (BT-549; Breast Cancer, BT-549): −7.11 | Log10LC50 (RXF 393; RXF 393 (Renal Cancer), LC50: PG=−50): −4.01 log10M | Log10TGI50 (RXF 393; RXF 393 (Renal Cancer), TGI: PG=0): −4.41 log10M | Log10GI50 (RXF 393; Renal Cancer, RXF 393): −4.80 | Log10GI50 (SF-268; CNS Cancer, SF-268): −5.40 | Log10LC50 (SF-268; SF-268 (CNS Cancer), LC50: PG=−50): −4.23 log10M | Log10TGI50 (SF-268; SF-268 (CNS Cancer), TGI: PG=0): −4.63 log10M | IC50 [1]: below one nM | antimalarial potency in vitro relative to artemisinin [1]: 10 times | IC50 ([1]; Table I, NF54 strain, read-out: IC50): 0.87 nM | Log10GI50 (MCF7; Breast Cancer, MCF7): −7.22 | Log10LC50 (MCF7; MCF7 (Breast Cancer), LC50: PG=−50): −4.03 log10M | Log10TGI50 (MCF7; MCF7 (Breast Cancer), TGI: PG=0): −4.67 log10M | Log10GI50 (NCI/ADR-RES; Breast Cancer, NCI/ADR-RES): −7.45 | Log10LC50 (NCI/ADR-RES; NCI/ADR-RES (Breast Cancer), LC50: PG=−50): −4.52 log10M | Log10TGI50 (NCI/ADR-RES; NCI/ADR-RES (Breast Cancer), TGI: PG=0): −6.41 log10M | Log10LC50 (CCRF-CEM; LC50: PG=−50): >−4.00 log10M | Log10TGI50 (CCRF-CEM; TGI: PG=0): −4.66 log10M | Log10GI50 (UACC-257; Melanoma, UACC-257): −7.31 | Log10LC50 (UACC-257; UACC-257 (Melanoma), LC50: PG=−50): −4.30 log10M | Log10TGI50 (UACC-257; UACC-257 (Melanoma), TGI: PG=0): −4.71 log10M | Log10GI50 (SF-539; CNS Cancer, SF-539): −7.05 | Log10LC50 (SF-539; SF-539 (CNS Cancer), LC50: PG=−50): −4.34 log10M | Log10TGI50 (SF-539; SF-539 (CNS Cancer), TGI: PG=0): −4.72 log10M | Log10GI50 (MDA-MB231/ATCC; Breast Cancer, MDA-MB231/ATCC): −5.40 | Log10LC50 (MDA-MB231/ATCC; MDA-MB231/ATCC (Breast Cancer), LC50: PG=−50): >−4.00 log10M | Log10TGI50 (MDA-MB231/ATCC; MDA-MB231/ATCC (Breast Cancer), TGI: PG=0): −4.33 log10M | Log10LC50 (K-562; K-562 (Leukemia), LC50: PG=−50): >−4.00 log10M | Log10TGI50 (K-562; K-562 (Leukemia), TGI: PG=0): >−4.00 log10M | Log10GI50 (K-562; Leukemia, K-562): −7.91 | Log10LC50 (HOP-62; HOP-62 (Non-Small Cell Lung Cancer), LC50: PG=−50): −4.20 log10M | Log10TGI50 (HOP-62; HOP-62 (Non-Small Cell Lung Cancer), TGI: PG=0): −4.56 log10M | Log10GI50 (HOP-62; Non-Small Cell Lung Cancer, HOP-62): −4.92 | Log10LC50 (HL-60(TB); HL-60(TB) (Leukemia), LC50: PG=−50): −4.13 log10M | Log10TGI50 (HL-60(TB); HL-60(TB) (Leukemia), TGI: PG=0): −4.88 log10M | Log10GI50 (HL-60(TB); Leukemia, HL-60(TB)): −7.78 | Log10LC50 (OVCAR-8; OVCAR-8 (Ovarian Cancer), LC50: PG=−50): −4.03 log10M | Log10TGI50 (OVCAR-8; OVCAR-8 (Ovarian Cancer), TGI: PG=0): −4.69 log10M | Log10GI50 (OVCAR-8; Ovarian Cancer, OVCAR-8): −7.33 | concentration for cytotoxicity (percentage growth −50) (MOLT-4): greater than 10^−4 M | Log10GI50 (MOLT-4; Leukemia, MOLT-4): −7.92 | Log10LC50 (MOLT-4; MOLT-4 (Leukemia), LC50: PG=−50): >−4.00 log10M | Log10TGI50 (MOLT-4; MOLT-4 (Leukemia), TGI: PG=0): >−4.00 log10M | Log10GI50 (SK-OV-3; Ovarian Cancer, SK-OV-3): −4.85 | Log10LC50 (SK-OV-3; SK-OV-3 (Ovarian Cancer), LC50: PG=−50): −4.21 log10M | Log10TGI50 (SK-OV-3; SK-OV-3 (Ovarian Cancer), TGI: PG=0): −4.53 log10M | Log10LC50 (EKVX; EKVX (Non-Small Cell Lung Cancer), LC50: PG=−50): −4.36 log10M | Log10TGI50 (EKVX; EKVX (Non-Small Cell Lung Cancer), TGI: PG=0): −4.77 log10M | Log10GI50 (EKVX; Non-Small Cell Lung Cancer, EKVX): −7.12 | Log10GI50 (HT29; Colon Cancer, HT29): −7.75 | Log10LC50 (HT29; HT29 (Colon Cancer), LC50: PG=−50): >−4.00 log10M | Log10TGI50 (HT29; HT29 (Colon Cancer), TGI: PG=0): −4.67 log10M
